Results reported in ChEMBL document CHEMBL3244288, “Antimalarials. 11. Synthesis of 3- and 5-aminoquinolines as potential antimalarials” (J Med Chem, 1979).
The source made the active and inactive calls. The rule behind the calls is not given here.

What was measured:
Type in all cases: functional, organism-based
Plasmodium cynomolgi [1] = test: Antimalarial activity against sporozoite form of Plasmodium cynomolgi infected in juvenile rhesus monkey assessed as radical curative effect
Plasmodium berghei = test: Antimalarial activity against Plasmodium berghei infected in mouse assessed as increase in mean survival time at 640 mg/kg, sc; parameters: dose 640 mg/kg
Leishmania donovani = test: Antileishmanial activity against Leishmania donovani infected in golden hamster administered for 8 days
Plasmodium cynomolgi [2] = test: Antimalarial activity against sporozoite form of Plasmodium cynomolgi infected in juvenile rhesus monkey assessed as radical curative effect at 10 mg/kg, administered 6 doses; parameters: dose 10 mg/kg

| SMILES | Activity (Plasmodium cynomolgi [1]) | Activity (Plasmodium berghei) | Activity (Leishmania donovani) | Activity (Plasmodium cynomolgi [2]) |
| --- | --- | --- | --- | --- |
| COc1cc(NC(C)CCCN)c2ncccc2c1 (configuration not stated) | Active | – | – | – |
| COc1cc2ncc(NC(C)CCCN)c(C)c2cc1OC (configuration not stated) | – | inactive | inactive | – |
| COc1cc2cc(NC(C)CCCN)cnc2cc1OC (configuration not stated) | – | inactive | inactive | – |
| CCN(CC)CCNc1ccc(OC)c2ncccc12 | inactive | inactive | inactive | – |
| COc1ccc(NC(C)CCCN)c2cccnc12 (configuration not stated) | – | inactive | inactive | Active |
| COc1cc(NC(C)CCCN)c2nccc(C)c2c1 (configuration not stated) | Active | – | – | – |
| COc1ccc2ncc(NC(C)CCCN)c(C)c2c1 (configuration not stated) | – | inactive | inactive | – |
| CCN(CC)CCCC(C)Nc1ccc(OC)c2ncccc12 (configuration not stated) | inactive | inactive | inactive | – |
